Reference: ChEMBL document CHEMBL6109068, “Design, synthesis, and biological evaluation of 5'-deoxy (N)-methanocarbanucleoside derivatives as A3 adenosine receptor ligands” (Bioorg Med Chem Lett, 2025)

What was measured:
[1] = target: T1, Adenosine receptor A3 (Homo sapiens) (UniProt P0DMS8); test: Displacement of [3H]-NECA from human A3AR stably expressed in HeLa cell membrane at 10 uM relative to control; format: cell membranes
T1 sequence (whole entry): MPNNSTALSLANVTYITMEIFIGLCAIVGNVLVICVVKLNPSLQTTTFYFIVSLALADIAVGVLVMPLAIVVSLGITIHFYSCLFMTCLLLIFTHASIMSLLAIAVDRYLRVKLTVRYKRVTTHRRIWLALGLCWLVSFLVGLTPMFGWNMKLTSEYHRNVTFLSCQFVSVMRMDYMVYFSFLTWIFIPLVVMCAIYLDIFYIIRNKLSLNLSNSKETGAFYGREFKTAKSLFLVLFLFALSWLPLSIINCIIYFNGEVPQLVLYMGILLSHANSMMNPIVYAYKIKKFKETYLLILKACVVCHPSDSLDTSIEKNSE

[2] = target: T2, Adenosine receptor A3 (Homo sapiens, UniProt P0DMS8); test: Displacement of [3H]-NECA from human A3AR stably expressed in HeLa cell membrane; format: cell membranes
T2 sequence (P0DMS8 whole entry): T1 sequence (whole entry)

SMILES: C[C@]12C[C@@H]1[C@@H](n1cnc3c(N)nc(Cl)nc31)[C@H](O)[C@@H]2O
- inhibition [1]: 89%

SMILES: C[C@]12C[C@@H]1[C@@H](n1cnc3c(NCc4cccc(F)c4)nc(Cl)nc31)[C@H](O)[C@@H]2O
- Ki [2]: 124 nM

SMILES: C[C@]12C[C@@H]1[C@@H](n1cnc3c(NCc4cccc(Cl)c4)ncnc31)[C@H](O)[C@@H]2O
- Ki [2]: 70.3 nM
